Patent publication US20260191863A1, “PYRROLOPYRIMIDINE COMPOSITIONS FOR TREATMENT OF ITK MEDIATED CONDITIONS” (ACLARIS THERAPEUTICS, INC., priority 2022, published 2026)

Assays:
Format in all cases: cell-based
ITK = target: T1, ITK (Homo sapiens, UniProt Q08881); assay: Cell IC50 ITK (Jurkat/pPLCγ1)
T1 construct: (Jurkat/pPLCγ1); endogenous in cells; host or cells: Jurkat
T1 sequence (Q08881 1-620): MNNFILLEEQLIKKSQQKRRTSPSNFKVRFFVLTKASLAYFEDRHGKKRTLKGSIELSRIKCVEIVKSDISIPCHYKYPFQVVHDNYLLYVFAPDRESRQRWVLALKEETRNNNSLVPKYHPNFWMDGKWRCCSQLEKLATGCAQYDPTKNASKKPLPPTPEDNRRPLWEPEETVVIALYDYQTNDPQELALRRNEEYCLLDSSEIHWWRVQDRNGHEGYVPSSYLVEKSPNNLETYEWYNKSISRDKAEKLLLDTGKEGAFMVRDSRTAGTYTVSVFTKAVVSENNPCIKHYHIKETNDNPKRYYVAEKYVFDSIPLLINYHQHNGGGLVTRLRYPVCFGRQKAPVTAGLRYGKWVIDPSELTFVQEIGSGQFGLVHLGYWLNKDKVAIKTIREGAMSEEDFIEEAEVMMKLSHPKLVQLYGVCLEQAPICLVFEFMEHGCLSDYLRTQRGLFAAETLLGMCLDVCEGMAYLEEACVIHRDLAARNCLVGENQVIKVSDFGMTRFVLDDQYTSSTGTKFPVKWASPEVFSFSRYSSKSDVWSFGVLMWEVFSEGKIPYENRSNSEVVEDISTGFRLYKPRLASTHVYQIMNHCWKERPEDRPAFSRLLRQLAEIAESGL

JAK3 (pSTAT5, lymph) = assay: Pre-clinical human whole blood IL-2/pSTAT5 (20 min), lymphocytes; details: Homo sapiens, Lymphocyte, 20 min; read-out: Human Whole Blood EC50, IL-2/pSTAT5 (20 min)
[1] = system: IL15 stimulated IFNγ protein; assay: Pre-clinical human whole blood IL-15/IFNγ (5 hr); details: Homo sapiens, 5 h, read-out: Human Whole Blood EC50, IL-15/IFNγ (5 hr)
ITK & JAK (IFNγ protein) = assay: Pre-clinical human whole blood αCD3 + IL-15/IFNγ (18 hr); details: Homo sapiens, 18 h; read-out: Human Whole Blood EC50, αCD3 + IL-15/IFNγ (18 hr)
ITK (IL2 mRNA) = assay: Pre-clinical human whole blood αCD3/28/IL-2 mRNA (2 hr); details: Homo sapiens, 2 h; read-out: Human Whole Blood EC50, αCD3/28/IL-2 mRNA (2 hr)
JAK2 = target: T2, JAK2 (Homo sapiens, UniProt O60674); assay: Cell IC50 JAK2
T2 construct: endogenous in cells
T2 sequence (O60674 whole entry): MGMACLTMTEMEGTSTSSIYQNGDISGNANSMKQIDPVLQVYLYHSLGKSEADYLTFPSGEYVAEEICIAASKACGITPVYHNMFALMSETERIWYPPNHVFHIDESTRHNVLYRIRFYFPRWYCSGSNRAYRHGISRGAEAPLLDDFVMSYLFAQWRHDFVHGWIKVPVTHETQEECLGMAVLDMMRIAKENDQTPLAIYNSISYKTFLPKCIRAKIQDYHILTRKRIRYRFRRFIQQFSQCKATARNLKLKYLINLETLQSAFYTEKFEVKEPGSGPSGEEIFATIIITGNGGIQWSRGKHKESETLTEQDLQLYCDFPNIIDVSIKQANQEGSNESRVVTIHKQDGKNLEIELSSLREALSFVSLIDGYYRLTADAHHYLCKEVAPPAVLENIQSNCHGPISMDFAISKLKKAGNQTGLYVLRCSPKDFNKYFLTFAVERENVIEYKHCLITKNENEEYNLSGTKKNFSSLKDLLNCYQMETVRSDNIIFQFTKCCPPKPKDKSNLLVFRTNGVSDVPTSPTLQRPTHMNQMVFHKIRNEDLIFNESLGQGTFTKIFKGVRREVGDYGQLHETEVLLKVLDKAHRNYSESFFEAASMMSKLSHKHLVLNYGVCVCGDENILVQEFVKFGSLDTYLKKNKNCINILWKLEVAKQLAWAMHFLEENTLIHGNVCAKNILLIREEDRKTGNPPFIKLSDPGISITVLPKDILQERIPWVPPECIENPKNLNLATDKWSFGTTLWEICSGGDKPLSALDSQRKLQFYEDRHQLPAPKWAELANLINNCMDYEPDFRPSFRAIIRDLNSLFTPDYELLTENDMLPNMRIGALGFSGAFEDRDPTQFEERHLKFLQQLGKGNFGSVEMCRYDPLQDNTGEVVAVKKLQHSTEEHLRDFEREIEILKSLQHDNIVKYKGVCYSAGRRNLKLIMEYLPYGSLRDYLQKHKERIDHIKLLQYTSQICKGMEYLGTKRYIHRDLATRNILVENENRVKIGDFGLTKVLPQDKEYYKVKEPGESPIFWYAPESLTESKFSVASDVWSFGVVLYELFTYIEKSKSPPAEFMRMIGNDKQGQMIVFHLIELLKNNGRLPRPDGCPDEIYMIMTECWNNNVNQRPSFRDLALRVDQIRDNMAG

SMILES | Cell IC50, ITK (ITK) | EC50 (JAK3 (pSTAT5, lymph)) [nM] | EC50 [1] [nM] | EC50 (ITK & JAK (IFNγ protein)) [nM] | EC50 (ITK (IL2 mRNA)) [nM] | Cell IC50, JAK2 (JAK2)
C[C@@H]1CCN(C(=O)CC#N)C[C@@H]1N(C)c1ncnc2[nH]ccc12 [Tofacitinib, reference compound] | Inactive |  |  |  |  | 
C=CC(=O)N1C[C@H](Nc2ncnc3[nH]ccc23)CC[C@@H]1C [Ritlecitinib, reference compound] |  | […] | 52 | 33 | 740 | Inactive
